Laboratory results taken from the NIST ThermoML archive (doi:10.1021/je100603q).
Numbers after ± are expanded uncertainties.

Columns and labels:
[1] = molar enthalpy of vaporization or sublimation; conditions: 298.15 K; Crystal; Microcalorimetry
[2] = molar enthalpy of transition or fusion; conditions: 298.15 K; Crystal; Microcalorimetry

| molar enthalpy [1] [kcal/mol] | molar enthalpy of transition or fusion [2] [kcal/mol] | SMILES |
| --- | --- | --- |
| 17.5 ± 0.669 |  | O=C1CCSCC1 [tetrahydro-4H-thiopyran-4-one] |
|  | 25.5 ± 0.574 | O=c1c2ccccc2sc2ccccc12 [thioxanthone] |
